The values that follow come from ChEMBL document CHEMBL1135473, “Synthesis of (+)-cis-N-(4-isothiocyanatobenzyl)-N-normetazocine, an isothiocyanate derivative of N-benzylnormetazocine as acylant agent for the sigma(1) receptor” (J Med Chem, 2002).

Test [1] concerns the target Sigma non-opioid intracellular receptor 1 (Homo sapiens) (UniProt Q99720). The conditions noted are these: Cavia porcellus; 200 nM.
For test [2] the target is unchanged. The conditions noted are these: Cavia porcellus; 0.1 uM.
Test [3] shares this target. The conditions noted are these: Cavia porcellus; 0.1 uM. The source holds these as a separate data set.
Description: Maximum binding capacity against Sigma opioid receptor type 1 at 0.1 uM BNIT
For test [4] the target is unchanged. The conditions noted are these: Cavia porcellus; 1 uM.
The target is the same in test [5]. The conditions noted are these: Cavia porcellus; 5 uM.
For test [6] the target is unchanged. The conditions noted are these: Cavia porcellus; 0.1 uM. The source holds these as a separate data set.
Description: Maximum binding capacity against Sigma opioid receptor type 2 at 0.1 uM BNIT
The target is the same in test [7]. The conditions noted are these: Cavia porcellus; 0.1 uM. This is another data set of the same source.

Sequence of Sigma non-opioid intracellular receptor 1 (Homo sapiens) (Q99720 whole entry): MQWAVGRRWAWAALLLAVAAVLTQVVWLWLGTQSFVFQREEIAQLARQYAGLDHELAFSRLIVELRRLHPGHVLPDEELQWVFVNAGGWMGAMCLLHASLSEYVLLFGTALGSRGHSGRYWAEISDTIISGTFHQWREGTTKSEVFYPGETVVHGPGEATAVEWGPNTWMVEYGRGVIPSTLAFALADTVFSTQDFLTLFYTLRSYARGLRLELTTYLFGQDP

Compound `CC(C)=CCN1CC[C@]2(C)c3cc(O)ccc3C[C@H]1[C@H]2C` had a Bmax in test [1] of 1120 fmol/mg.

In test [2], `Cc1ccccc1NC(=N)Nc1ccccc1C` came in with a Kd1 of 12.8 nM. This compound displayed a Bmax1 in test [3] of 674. For the same compound, the Bmax is 1010 fmol/mg in test [4] and 957 fmol/mg in test [5]. Besides, the Bmax2 in test [6] is 1330. This compound came in with a Kd2 in test [7] of 21.4 nM.
